Read-outs that look alike come from different tables or passages of the source.
Tests used:
[1] = target: T1, rat α1β2γ2L type GABAA receptors expressed in Xenopus laevis oocytes (Rattus norvegicus, UniProt P62813+P63138); assay: Oocyte electrophysiology: potentiation of GABA-mediated chloride currents and direct gating; assay type: cell-based; conditions: 2 μM GABA, ± SEM, N ≥4; for oocyte electrophysiology 0.1 μM: ratio of currents in presence/absence of 0.1 μM compound; for oocyte electrophysiology 1 μM: ratio of currents in presence/absence of 1 μM compound; for oocyte electrophysiology 10 μM: ratio of currents in presence/absence of 10 μM compound
T1 construct: expressed in transfected cells; host or cells: Xenopus laevis oocytes
Procedure: The compounds of the present disclosure were evaluated for the ability to potentiate chloride currents mediated by 2 μM GABA at rat α1β2γ2L type GABAA receptors expressed in Xenopus laevis oocytes and the results are shown in Table 2.

[2] = tested on: Tadpole; assay: Tadpole loss of righting reflex (LRR) and loss of swimming reflex (LSR); assay type: in vivo; conditions: ± SEM
Procedure: Table 3 discloses the anesthetic effects of the compounds of the present disclosure. In particular, the anesthetic effect of the compounds of the present disclosure on Loss of Righting Reflex (LRR) and Loss of Swimming Reflex (LSR).
Methods used are known in the art (see Jiang, X., et al.). Error limits are calculated as standard error of the mean (N=10 or more animals at each of five or more different concentrations).

[3] = target: T1, rat α1β2γ2L type GABAA receptors expressed in Xenopus laevis oocytes; assay: Oocyte electrophysiology: potentiation of GABA-mediated chloride currents and direct gating; assay type: cell-based; conditions: direct current gated by 10 μM compound in absence of GABA; ratio of compound only current/2 μM GABA current
[4] = target: picrotoxin binding site on GABAA receptors; assay: [35S]-TBPS displacement (inhibition of [35S]-TBPS binding); conditions: non-competitive displacement; duplicate experiments in triplicate; ± SEM
Description: The IC50 values for non-competitive displacers of [^35S]-TBPS from the picrotoxin binding site on GABAA receptors are reported in Table 1.

[5] = loss of righting reflex, read-out: Tadpole LRR EC50
[6] = loss of swimming reflex, read-out: Tadpole LSR EC50

T1 sequence (P62813 28-455): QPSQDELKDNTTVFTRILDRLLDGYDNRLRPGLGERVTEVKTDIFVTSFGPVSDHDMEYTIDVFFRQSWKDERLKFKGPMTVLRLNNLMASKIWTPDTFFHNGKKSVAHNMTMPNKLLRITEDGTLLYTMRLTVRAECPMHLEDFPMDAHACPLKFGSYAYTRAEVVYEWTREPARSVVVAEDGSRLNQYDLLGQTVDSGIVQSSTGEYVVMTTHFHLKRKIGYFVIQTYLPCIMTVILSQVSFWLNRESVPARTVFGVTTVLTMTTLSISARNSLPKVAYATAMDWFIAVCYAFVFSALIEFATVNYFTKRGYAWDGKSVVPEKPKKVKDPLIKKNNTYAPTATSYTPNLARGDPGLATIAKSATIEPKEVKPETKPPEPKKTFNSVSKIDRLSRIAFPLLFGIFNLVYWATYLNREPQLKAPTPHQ
T1 sequence (P63138 26-474): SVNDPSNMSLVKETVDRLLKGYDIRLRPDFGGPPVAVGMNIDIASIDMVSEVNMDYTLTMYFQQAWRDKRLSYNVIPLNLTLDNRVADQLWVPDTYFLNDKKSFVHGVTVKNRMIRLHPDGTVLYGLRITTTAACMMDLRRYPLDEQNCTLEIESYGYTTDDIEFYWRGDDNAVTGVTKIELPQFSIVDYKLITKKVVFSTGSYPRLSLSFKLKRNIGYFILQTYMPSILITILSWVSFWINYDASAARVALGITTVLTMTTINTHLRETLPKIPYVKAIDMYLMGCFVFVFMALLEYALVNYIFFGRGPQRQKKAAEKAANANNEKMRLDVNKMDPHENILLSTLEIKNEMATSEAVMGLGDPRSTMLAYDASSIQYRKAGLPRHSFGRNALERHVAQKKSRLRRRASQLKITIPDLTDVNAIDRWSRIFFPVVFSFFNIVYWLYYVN
T1 sequence (P18508 with tags, fused parts or gaps INS375LLRMFSFK partner): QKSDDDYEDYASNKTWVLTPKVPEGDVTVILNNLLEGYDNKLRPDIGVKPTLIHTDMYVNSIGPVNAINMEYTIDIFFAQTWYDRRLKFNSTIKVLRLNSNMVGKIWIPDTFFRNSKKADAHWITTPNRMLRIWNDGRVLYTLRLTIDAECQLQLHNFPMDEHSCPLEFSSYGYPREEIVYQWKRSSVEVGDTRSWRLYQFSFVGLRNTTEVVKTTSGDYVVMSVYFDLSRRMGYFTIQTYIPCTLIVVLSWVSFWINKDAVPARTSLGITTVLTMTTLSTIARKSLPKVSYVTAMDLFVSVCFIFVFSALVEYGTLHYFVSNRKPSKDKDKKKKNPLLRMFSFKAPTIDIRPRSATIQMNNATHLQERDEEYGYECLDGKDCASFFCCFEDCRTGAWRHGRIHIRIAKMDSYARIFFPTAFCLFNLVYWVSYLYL

SMILES: COC[C@]12CCC(O)CC1CC[C@@H]1[C@@H]2CC[C@]2(C)C(=O)CC[C@@H]12 (stereo in doubt) [Compound 30, (3α,5β)-3-Hydroxy-19-methoxyandrostan-17-one]
- oocyte electrophysiology 0.1 μM [1]: 0.90 ± 0.02
- oocyte electrophysiology 1 μM [1]: 0.88 ± 0.01
- oocyte electrophysiology 10 μM [1]: 0.84 ± 0.02
- EC50 [2, 5]: > 10 µM

SMILES: COC[C@]12CCC(=O)C[C@@H]1CC[C@H]1[C@@H]3CC[C@H](OC)[C@@]3(C)CC[C@@H]12 [Compound 7, (5α,17β)-17,19-Dimethoxyandrostan-3-one]
- oocyte electrophysiology (gating) 10 μM [3]: 0.04 ± 0.03
- melting point: 91 to 93 °C
- oocyte electrophysiology 0.1 μM [1]: 1.00 ± 0
- oocyte electrophysiology 1 μM [1]: 0.85 ± 0.01
- oocyte electrophysiology 10 μM [1]: 1.07 ± 0.02
- EC50 [2, 5]: 1.71 ± 0.25 µM
- EC50 [2, 6]: 5.48 ± 0.12 µM

SMILES: COC[C@]12CC[C@@H](O)C[C@@H]1CC[C@H]1[C@@H]3CC[C@H](OC)[C@@]3(C)CC[C@@H]12 [Compound 8, (5α,17β)-17,19-Dimethoxyandrostan-3-ol]
- oocyte electrophysiology (gating) 10 μM [3]: 0.22 ± 0.01
- oocyte electrophysiology 0.1 μM [1]: 1.65 ± 0.08
- oocyte electrophysiology 1 μM [1]: 7.63 ± 0.77
- oocyte electrophysiology 10 μM [1]: 20.9 ± 2.73
- EC50 [2, 5]: 332 ± 43 µM
- EC50 [2, 6]: 1.07 ± 0.01 µM

SMILES: COC[C@]12CC[C@@H](O)C[C@@H]1CC[C@@H]1[C@@H]2CC[C@]2(C)C(=O)CC[C@@H]12 [Compound 11, (3α,5α)-3-Hydroxy-19-methoxyandrostan-17-one]
- oocyte electrophysiology (gating) 10 μM [3]: 0 ± 0.07
- IC50 [4]: 4.3 µM
- oocyte electrophysiology 0.1 μM [1]: 0.71 ± 0.02
- oocyte electrophysiology 1 μM [1]: 0.76 ± 0.07
- oocyte electrophysiology 10 μM [1]: 2.17 ± 0.12
- EC50 [2, 5]: 7.95 ± 3.29 µM
- EC50 [2, 6]: 17.3 ± 0.2 µM

SMILES: COC[C@]12CC[C@@H](O)C[C@@H]1CC[C@@H]1[C@@H]2CC[C@@]2(C)[C@H]1CC[C@@]21CO1 [Compound 12, (3α,5α,17β)-19-Methoxyspiro[androstane-17,2′-oxiran]-3-ol]
- oocyte electrophysiology (gating) 10 μM [3]: 0.14 ± 0.04
- oocyte electrophysiology 0.1 μM [1]: 1.24 ± 0.05
- oocyte electrophysiology 1 μM [1]: 7.40 ± 1.43
- oocyte electrophysiology 10 μM [1]: 18.7 ± 6.19
- EC50 [2, 5]: 1.73 ± 0.05 µM
- EC50 [2, 6]: 3.54 ± 2.33 µM

SMILES: COC[C@]12CC[C@@H](O)C[C@@H]1CC[C@@H]1[C@@H]2CC[C@]2(C)C(C#N)=CC[C@@H]12 [Compound 15, (3α,5α)-3-Hydroxy-19-methoxyandrost-16-ene-17-carbonitrile]
- oocyte electrophysiology (gating) 10 μM [3]: 0.10 ± 0.09
- oocyte electrophysiology 0.1 μM [1]: 1.27 ± 0.13
- oocyte electrophysiology 1 μM [1]: 5.34 ± 0.86
- oocyte electrophysiology 10 μM [1]: 25.6 ± 3.23
- EC50 [2, 5]: 1.22 ± 0.94 µM
- EC50 [2, 6]: 2.71 µM

SMILES: COC[C@]12CC[C@@H](O)C[C@@H]1CC[C@H]1[C@@H]3CC[C@H](C#N)[C@@]3(C)CC[C@@H]12 [Compound 16, (3α,5α,17β)-3-Hydroxy-19-methoxyandrostane-17-carbonitrile]
- oocyte electrophysiology (gating) 10 μM [3]: 0.25 ± 0.11
- oocyte electrophysiology 0.1 μM [1]: 1.52 ± 0.02
- oocyte electrophysiology 1 μM [1]: 9.79 ± 0.53
- oocyte electrophysiology 10 μM [1]: 25.7 ± 2.11
- EC50 [2, 5]: 0.36 ± 0.04 µM
- EC50 [2, 6]: 0.99 ± 0.17 µM

SMILES: COC[C@]12CC[C@@H](O)C[C@@H]1CC[C@H]1[C@@H]3CC[C@H](C(C)=O)[C@@]3(C)CC[C@@H]12 [Compound 17, (3α,5α)-3-Hydroxy-19-methoxypregnan-20-one]
- oocyte electrophysiology (gating) 10 μM [3]: 0.23 ± 0.07
- oocyte electrophysiology 0.1 μM [1]: 2.15 ± 0.19
- oocyte electrophysiology 1 μM [1]: 12.8 ± 1.74
- oocyte electrophysiology 10 μM [1]: 33.8 ± 5.44
- EC50 [2, 5]: 0.36 ± 0.04 µM
- EC50 [2, 6]: 1.71 ± 0.03 µM

SMILES: COC[C@]12CC[C@@H](O)C[C@@H]1CC[C@H]1[C@@H]3CC[C@H](C(=O)CO)[C@@]3(C)CC[C@@H]12 [Compound 20, (3α,5α)-3,21-Dihydroxy-19-methoxypregnan-20-one]
- oocyte electrophysiology (gating) 10 μM [3]: 0.09 ± 0.05
- oocyte electrophysiology 0.1 μM [1]: 0.98 ± 0.01
- oocyte electrophysiology 1 μM [1]: 2.76 ± 0.27
- oocyte electrophysiology 10 μM [1]: 19.0 ± 2.31
- EC50 [2, 5]: 3.15 ± 0.5 µM
- EC50 [2, 6]: 5.48 ± 0.12 µM

SMILES: COC[C@]12CCC(=O)C=C1CC[C@@H]1[C@@H]2CC[C@]2(C)[C@@H](OC)CC[C@@H]12 [Compound 24, (17β)-17,19-Dimethoxyandrost-4-en-3-one]
- oocyte electrophysiology (gating) 10 μM [3]: 0.11 ± 0.17
- oocyte electrophysiology 0.1 μM [1]: 0.88 ± 0.08
- oocyte electrophysiology 1 μM [1]: 0.63 ± 0.06
- oocyte electrophysiology 10 μM [1]: 1.06 ± 0.17

SMILES: COC[C@]12CC[C@@H](O)CC1=CC[C@@H]1[C@@H]2CC[C@]2(C)[C@@H](OC)CC[C@@H]12 [Compound 25, (3α,17β)-17, 19-Dimethoxyandrost-5-en-3-ol]
- oocyte electrophysiology (gating) 10 μM [3]: 0.08 ± 0.07
- oocyte electrophysiology 0.1 μM [1]: 0.94 ± 0.07
- oocyte electrophysiology 1 μM [1]: 1.97 ± 0.08
- oocyte electrophysiology 10 μM [1]: 15.7 ± 0.90
- EC50 [2, 5]: 3.38 ± 0.38 µM
- EC50 [2, 6]: 10.5 µM

SMILES: COC[C@]12CC[C@H](O)CC1=CC[C@@H]1[C@@H]2CC[C@]2(C)[C@@H](OC)CC[C@@H]12 [Compound 26, (3β,17β)-17, 19-Dimethoxyandrost-5-en-3-ol]
- oocyte electrophysiology (gating) 10 μM [3]: 0.02 ± 0.02
- oocyte electrophysiology 0.1 μM [1]: 0.83 ± 0.03
- oocyte electrophysiology 1 μM [1]: 0.76 ± 0.02
- oocyte electrophysiology 10 μM [1]: 0.78 ± 0.02

SMILES: COC[C@]12CC[C@@H](O)C[C@@H]1CC[C@H]1[C@@H]3CC[C@H]([N+](=O)[O-])[C@@]3(C)CC[C@@H]12 [Compound 29, (3α,5α,17β)-19-methoxy-17-nitroandrostan-3-ol]
- oocyte electrophysiology (gating) 10 μM [3]: 0.11 ± 0.01
- oocyte electrophysiology 0.1 μM [1]: 2.07 ± 0.09
- oocyte electrophysiology 1 μM [1]: 15.7 ± 1.45
- oocyte electrophysiology 10 μM [1]: 26.6 ± 4.34
- EC50 [2, 5]: 0.16 ± 0.01 µM
- EC50 [2, 6]: 0.55 ± 0.01 µM

SMILES: COC[C@]12CC[C@H](O)C[C@@H]1CC[C@H]1[C@@H]3CC[C@H](OC)[C@@]3(C)CC[C@@H]12 [Compound 31, (3β,5α,17β)-17, 19-Dimethoxyandrostan-3-ol]
- oocyte electrophysiology (gating) 10 μM [3]: 0.02 ± 0
- oocyte electrophysiology 0.1 μM [1]: 0.91 ± 0.02
- oocyte electrophysiology 1 μM [1]: 0.97 ± 0.05
- oocyte electrophysiology 10 μM [1]: 1.10 ± 0.05
- EC50 [2, 5]: 7.04 ± 1.98 µM
- EC50 [2, 6]: 16.8 ± 5.9 µM

— patent US10342809B2, “Neuroactive 19-alkoxy-17-substituted steroids, prodrugs thereof, and methods of treatment using same” (priority 2012, dated 2019)
